Results taken from patent US4175544A, “Iodo-aryl carbonates for use in methods in radiography” (Lafayette Pharmacal Inc., priority 1978, dated 1979).

Columns and labels:
[1] = tested on: lymph nodes (popliteal and iliac); settings: dog, in vivo
Procedure: Four iodinated organic carbonates prepared as described hereinabove were evaluated for use as lymphographic agents in laboratory dogs.
Six adult mongrel dogs, preconditioned for at least two weeks at the Lafayette Pharmacal, Inc. facilities, were used for the study. The dogs were removed from food the evening prior to dosing. Each animal was first anesthetized with Rompun and sodium pentobarbital and intubated to assist in breathing. A standard lymphogram was then performed on one rear leg only of each animal using known laboratory procedures. Specifically, a blue dye was first injected between the toes of the right hind limb to locate the lymph ducts. A single duct was then disected out and cannulated. One of the six compounds was then selected and a syringe pump used to inject the test compound into the duct at a constant rate. In this regard, the dogs were injected with an effective amount of one (1) cc of test substance per 20 lbs. of body weight. The iodinated phenyl compounds were brought to about body temperature prior to the injecting and then were injected while at about the body temperature.
Radiographs were then taken of each animal after confirming the location of the injected bolus by fluoroscopy means. The animals were given atropine sulfate and observations made while they were allowed to recover from the anesthetic unassisted.
The animals were then returned to their cages and radiographs were taken at the end of 24 hours, 3 days and 1, 2, 3, 4 and 6 weeks to determine the radiographic clearance rate of each tested compound. Daily urine samples were also collected and subjected to fluorescent exitation analysis to determine the urinary clearance rate for each compound. Six weeks after the initial lymphogram, the animals were sacrificed and the popliteal and iliac nodes on both sides removed. The nodes from the dosed side and undosed side of each animal were then compared histopathologically.

albino mice [2] = experiment: Initial toxicity screen: Approximate Lethal Dose by intraperitoneal injection (Deichmann and LeBlanc); assay type: in vivo; settings: for Approximate Lethal Dose (ALD): intraperitoneal, albino mice, neat liquid or suspension, footnote (b): largest dose administered (e, f, i, p, q)
Procedure: As an initial toxicity screen for the compounds shown hereinabove, the neat liquid or suspension of the material was injected into the peritoneal cavity of albino mice and the Approximate Lethal Dose (ALD) determined using the method of Deichmann and LeBlanc (W. B. Deichmann and T. J. LeBlanc, J. Ind. Hyg., 25, 415 (1943)) the results of which are presented in Table II, as set forth hereinafter.
Approximate Interperitoneal Toxicity in Mice
Approximate Lethal Dose Ml/Kg

brain and spinal cord = experiment: Suboccipital study of laboratory animals (neurotoxicity, brain and spinal cord histopathology); assay type: in vivo, laboratory rats; settings: rat; for Overall / histopathological response: 0.1 ml suboccipital injection, 1 to 14 weeks; for Difficulty with righting responses / Recovery from the injection procedure: suboccipital injection; for Recovery from the injection procedure: as a group; for Lipid puddle formation: compared with air and Pantopaque
Procedure: Six iodinated phenyl carbonate compounds prepared as described above, as well as air and Pantopaque, a known prior art radiographic compound, were injected suboccipitally into separate groups of 30 laboratory rats. The six iodinated compounds under examination were p-iodobenzyl-n-hexyl carbonate, p-iodobenzyl-n-octyl carbonate, p-iodobenzyl-2-octyl carbonate, 2-ethylhexyl-p-iodobenzyl carbonate, n-hexyl-3-(p-iodophenyl)propyl carbonate and n-hexyl-2-(p-iodobenzyl)butyl carbonate. Six rats from each injected group were then sacrificed at periodic intervals and the brain and spinal cord removed for histopathological evaluation. By comparing the results of air and Pantopaque with the results using the iodinated compounds, an evaluation of their relative neurotoxicity was obtained.
The groups of rats were first subjected to standard quarantine procedure at the Lafayette Pharmacol, Inc. facilities for at least two weeks prior to dosing. About 18 hours prior to dosing, food was withdrawn but water was allowed ad lib. During injection, each animal was anesthetized in an ether chamber and the back of the neck closely clipped. After placing the animal on a board with the head declined at 45°, a puncture was made just at the base of the atlas and 0.1 ml. of the selected test substance was injected. Radiographs were then taken immediately after dosing to confirm the intrathecal location of the injected bolus, and the animals were returned to their cages for observation.
One group of six animals for each tested substance was then sacrificed at the following elapsed times post injection: 1 week; 2 weeks; 4 weeks; 8 weeks and 14 weeks. At sacrifice, the animal were perfused with saline and formalin. Each animal was again radiographed and the brain and spinal cord then removed and stored for histopathological study.

albino mice [3] = experiment: Initial toxicity screen: Approximate Lethal Dose by intraperitoneal injection (Deichmann and LeBlanc); assay type: in vivo; settings: 20% w/v in Sesame oil, for r also footnote (b): largest dose administered
lung [4] = experiment: Bronchography study of laboratory animals (insuflation of a caudal lobe of one lung); settings: dog, dosed lobe, 2 weeks
Procedure: (§1) Food was withdrawn from each animal 12 hours prior to dosing with water given ad lib. The animals were then first anesthetized with sodium pentobarbital and maintained on halothane. Each animal was then intubated with a tracheal tube and scouting X-ray films were taken to confirm its position. Next, a stainless steel guide wire was passed through a polypropylene tube, i.e., insuflation tube, and this combination was passed into the animal's lung. The position of this guide wire was then confirmed by fluoroscopy and the guide wire then removed, thus leaving the insulfation tube in place.
(§2) In this regard, the amount of selected iodinated phenyl carbonate compound varied for each animal according to weight, with 6 cc being given to the heaviest test dog. Oxygen at 20 psi was then used to insuflate a caudal lobe of one lung of each animal while monitoring with fluoroscopy. Lateral and direct view radiographs were then taken. […] Food was then given after 12 hours.
(§3) At 2 weeks, the animals were then anesthetized and radiographs taken while the lungs were expanded by air insuflation. The animals were then sacrificed by injection of saline and the dosed lobe of each animal examined histopathologically and compared with the corresponding undosed lobe.

lung [5] = settings: dog, in vivo
Procedure: as §1, §2, §3

CCCCOC(=O)SCc1ccc(I)cc1 [S-(p-iodobenzyl)-n-butyl thiolcarbonate]
Histopathology of dosed nodes [1]: mild granulomatous lymphadenitis or lipoidal lymphadenopathy
Overall result after six weeks [1]: excellent overall results with only minor histopathological responses
Rate of clearance and elimination (order, fastest to slowest) [1]: almost the same
Time to radiographically clear [1]: ≤ 6 weeks

CC(C)COC(=O)OCc1ccc(I)cc1 [a, p-Iodobenzyl Isobutyl Carbonate]
Approximate Lethal Dose (ALD) (albino mice [2]): 3 mL/kg

CCCCCOC(=O)OCc1ccc(I)cc1 [b, n-Amyl-p-Iodobenzyl Carbonate]
Approximate Lethal Dose (ALD) (albino mice [2]): 3 mL/kg

CCCCCCOC(=O)OCc1ccc(I)cc1 [c, n-Hexyl-p-Iodobenzyl Carbonate]
Approximate Lethal Dose (ALD) (albino mice [2]): 7 mL/kg
Overall / histopathological response (brain and spinal cord): Relatively more severe histopathological responses
Difficulty with righting responses (brain and spinal cord): more animals exhibiting righting difficulty
Recovery from the injection procedure (brain and spinal cord): taking longer to recover
Rate of clearance and elimination (order, fastest to slowest) [1]: p-iodobenzyl-n-butyl carbonate, p-iodobenzyl-n-hexyl carbonate, p-iodobenzyl-n-octyl carbonate and ethiodol
Time to radiographically clear [1]: ≤ 6 weeks

CC(C)CC(C)OC(=O)OCc1ccc(I)cc1 (stereo not drawn) [d, p-Iodobenzyl-4-methyl-2-Pentyl Carbonate]
Approximate Lethal Dose (ALD) (albino mice [2]): 7 mL/kg

CCCCCCCCOC(=O)OCc1ccc(I)cc1 [e, n-Octyl-p-Iodobenzyl Carbonate]
Approximate Lethal Dose (ALD) (albino mice [2]): 15 mL/kg
Overall / histopathological response (brain and spinal cord): overall responses close to air and Pantopaque approximating normal
Lipid puddle formation (brain and spinal cord): slightly more lipid puddle formation
Difficulty with righting responses (brain and spinal cord): an occasional animal showing some difficulty with righting responses
Histopathology of dosed nodes [1]: mild granulomatous lymphadenitis or lipoidal lymphadenopathy
Overall result after six weeks [1]: excellent overall results with only minor histopathological responses
Radiographic state of iliac node [1]: small droplets could be seen
Radiographic state of popliteal node [1]: clear
Rate of clearance and elimination (order, fastest to slowest) [1]: p-iodobenzyl-n-hexyl carbonate, p-iodobenzyl-n-octyl carbonate and ethiodol

CCCCCCCCCCOC(=O)OCc1ccc(I)cc1 [f, n-Decyl-p-Iodobenzyl Carbonate]
Approximate Lethal Dose (ALD) (albino mice [2]): 10.5 mL/kg

CCCCC(CC)COC(=O)OCc1ccc(I)cc1 (stereo not drawn) [g, 2-Ethylhexyl-p-Iodobenzyl Carbonate]
Approximate Lethal Dose (ALD) (albino mice [2]): 15 mL/kg
Overall / histopathological response (brain and spinal cord): Relatively more severe histopathological responses
Difficulty with righting responses (brain and spinal cord): more animals exhibiting righting difficulty
Recovery from the injection procedure (brain and spinal cord): taking longer to recover

CCCC(CC)OC(=O)OCc1ccc(I)cc1 (stereo not drawn) [h, 3-Hexyl-p-Iodobenzyl Carbonate]
Approximate Lethal Dose (ALD) (albino mice [2]): 3 mL/kg

CCCCCCC(C)OC(=O)OCc1ccc(I)cc1 (stereo not drawn) [i, 2-Octyl-p-Iodobenzyl Carbonate]
Approximate Lethal Dose (ALD) (albino mice [2]): 15 mL/kg
Overall / histopathological response (brain and spinal cord): Relatively more severe histopathological responses
Difficulty with righting responses (brain and spinal cord): more animals exhibiting righting difficulty
Recovery from the injection procedure (brain and spinal cord): taking longer to recover

CCCCCCOC(=O)Oc1ccc(I)cc1 [j, n-Hexyl-p-Iodophenyl Carbonate]
Approximate Lethal Dose (ALD) (albino mice [2]): 7 mL/kg

CCCCCCCCOC(=O)Oc1ccc(I)cc1 [k, n-Octyl-p-Iodphenyl Carbonate]
Approximate Lethal Dose (ALD) (albino mice [2]): 7 mL/kg

CCCCCCOC(=O)OC(C)c1ccc(I)cc1 (stereo not drawn) [l, n-Hexyl-p-Iodo-sec-Phenethyl Carbonate]
Approximate Lethal Dose (ALD) (albino mice [2]): 10.5 mL/kg

CCCCCCOC(=O)OCCc1ccc(I)cc1 [m, n-Hexyl-p-Iodophenethyl Carbonate]
Approximate Lethal Dose (ALD) (albino mice [2]): 7 mL/kg

CCCCCCOC(=O)OCCCc1ccc(I)cc1 [n, n-Hexyl-3-(p-Iodophenyl)Propyl Carbonate]
Approximate Lethal Dose (ALD) (albino mice [2]): 15 mL/kg
Overall / histopathological response (brain and spinal cord): Relatively more severe histopathological responses
Difficulty with righting responses (brain and spinal cord): more animals exhibiting righting difficulty
Recovery from the injection procedure (brain and spinal cord): taking longer to recover

CCCCCCOC(=O)OCCC(C)c1ccc(I)cc1 (stereo not drawn) [o, n-Hexyl-3-(p-Iodophenyl)Butyl Carbonate]
Approximate Lethal Dose (ALD) (albino mice [2]): 7 mL/kg

CCCCCCOC(=O)OCC(CC)Cc1ccc(I)cc1 (stereo not drawn) [p, n-Hexyl-2-(p-Iodobenzyl)Butyl Carbonate]
Approximate Lethal Dose (ALD) (albino mice [2]): greater than 15 Ml/Kg
Overall / histopathological response (brain and spinal cord): overall responses close to air and Pantopaque approximating normal
Lipid puddle formation (brain and spinal cord): slightly more lipid puddle formation
Difficulty with righting responses (brain and spinal cord): an occasional animal showing some difficulty with righting responses

CCOC(=O)OCc1ccc(I)cc1 [p-iodobenzyl ethyl carbonate]
Clearance of nodes [1]: ~3 days
Histopathology of dosed nodes [1]: no change in the nodes
Overall result after six weeks [1]: indistinguishable from undosed animals
Rate of clearance and elimination (order, fastest to slowest) [1]: fastest

CCCCOC(=O)OCc1ccc(I)cc1 [p-iodobenzyl-n-butyl carbonate]
Histopathology of dosed nodes [1]: no change in the nodes
Overall result after six weeks [1]: indistinguishable from undosed animals
Rate of clearance and elimination (order, fastest to slowest) [1]: almost the same
Time to radiographically clear [1]: ≤ 6 weeks

CCCCCCOC(=O)OCC(CCCC)Cc1ccc(I)cc1 (stereo not drawn) [q, n-Hexyl-2-(p-Iodobenzyl)-n-Hexyl Carbonate]
Approximate Lethal Dose (ALD) (albino mice [2]): greater than 15 Ml/Kg

CCCCCCOC(=O)OCc1c(I)cc(I)c(N)c1I [r, 3-Amino-2,4,6-Triiodobenzyl-n-Hexyl Carbonate]
Approximate Lethal Dose (ALD) (albino mice [3]): greater than 11 Ml/Kg

CCCCCCOC(=O)OCc1cc(I)cc(I)c1 [s, 3,5-Diiodobenzyl-n-Hexyl Carbonate]
Approximate Lethal Dose (ALD) (albino mice [2]): 5 mL/kg

CCCCCCCCOC(=O)OCc1cccc(I)c1 [t, m-Iodobenzyl-n-Octyl Carbonate]
Approximate Lethal Dose (ALD) (albino mice [2]): greater than 17 Ml/Kg

CCOC(=O)OCc1c(I)cc(I)c(NC(C)=O)c1I [u, 3-acetamido-(2,4,6-triiodobenzyl)ethyl carbonate]
Approximate Lethal Dose (ALD) (albino mice [3]): greater than 22 Ml/Kg
Gross lesions related to instillation (lung [4]): No gross lesions were found that appeared specifically related to instillation of the contrast medium
Histopathological alterations of dosed lobes (lung [5]): obliterative granulomatous bronchiolitis
Persistence of compound in lung (lung [5]): some evidence the iodinated phenyl carbonate had persisted and was responsible for this granulomatous bronchiolitis

COC(=O)OC(C)c1ccc(I)cc1 (stereo not drawn) [v, p-Iodo-sec-Phenethyl Methyl Carbonate, reference compound]
Intraperitoneal toxicity (in words) (albino mice [2]; compared with the compounds of Table II): more toxic
Approximate Lethal Dose (ALD) (albino mice [2]): 1.5 mL/kg
